Laboratory results published in the NIST ThermoML archive (doi:10.1021/je300017m).
Values joined by “and” are separate entries in the source; they are usually repeats but may differ in a detail not shown here. Equal entries are not always repeated.

Key:
[1] = mn = molality of the nth substance listed, in mol/kg; conditions: 101 kPa, Liquid
[2] = 101 kPa, Liquid

C[S+](C)[O-] [dimethyl sulfoxide] + CCCCCCCCCCCCn1cc[n+](C)c1.[Br-]
[1], m2 = 0
Conditions | mass density [kg/m3]
293.15 K | 1100.22
303.15 K | 1090.38
308.15 K | 1085.41
313.15 K | 1080.47

CCCCn1cc[n+](C)c1.[Br-] [1-butyl-3-methylimidazolium bromide] + C[S+](C)[O-]
[1]
Conditions | mass density [kg/m3]
293.15 K, m1 = 0.00417 | 1100.42
293.15 K, m1 = 0.00643 | 1100.53
293.15 K, m1 = 0.00951 | 1100.68
293.15 K, m1 = 0.01236 | 1100.82
293.15 K, m1 = 0.015 | 1100.95
293.15 K, m1 = 0.01784 | 1101.09
293.15 K, m1 = 0.02066 | 1101.23
293.15 K, m1 = 0.02307 | 1101.35
293.15 K, m1 = 0.02628 | 1101.51
293.15 K, m1 = 0.02848 | 1101.62
303.15 K, m1 = 0.00497 | 1090.6
303.15 K, m1 = 0.00823 | 1090.76
303.15 K, m1 = 0.01126 | 1090.91
303.15 K, m1 = 0.01409 | 1091.05
303.15 K, m1 = 0.01689 | 1091.19
303.15 K, m1 = 0.02008 | 1091.35
303.15 K, m1 = 0.02326 | 1091.51
303.15 K, m1 = 0.02642 | 1091.67
303.15 K, m1 = 0.02917 | 1091.82
303.15 K, m1 = 0.03153 | 1091.94
308.15 K, m1 = 0.00514 | 1085.66
308.15 K, m1 = 0.00817 | 1085.81
308.15 K, m1 = 0.01139 | 1085.97
308.15 K, m1 = 0.01418 | 1086.11
308.15 K, m1 = 0.01696 | 1086.25
308.15 K, m1 = 0.01992 | 1086.41
308.15 K, m1 = 0.02347 | 1086.59
308.15 K, m1 = 0.0264 | 1086.74
308.15 K, m1 = 0.02914 | 1086.88
308.15 K, m1 = 0.03167 | 1087.01
313.15 K, m1 = 0.00489 | 1080.7
313.15 K, m1 = 0.00769 | 1080.83
313.15 K, m1 = 0.01069 | 1080.98
313.15 K, m1 = 0.01325 | 1081.11
313.15 K, m1 = 0.01542 | 1081.23
313.15 K, m1 = 0.01934 | 1081.43
313.15 K, m1 = 0.02264 | 1081.6
313.15 K, m1 = 0.02575 | 1081.76
313.15 K, m1 = 0.02845 | 1081.9
313.15 K, m1 = 0.03154 | 1082.06

CCCCCCCCCCCCn1cc[n+](C)c1.[Br-] [1-dodecyl-3-methylimidazolium bromide] + C[S+](C)[O-]
[1]
Conditions | mass density [kg/m3]
293.15 K, m1 = 0.00397 | 1100.23
293.15 K, m1 = 0.00623 | 1100.24
293.15 K, m1 = 0.00818 | 1100.25
293.15 K, m1 = 0.01037 | 1100.26
293.15 K, m1 = 0.01216 | 1100.26
293.15 K, m1 = 0.01421 | 1100.27
293.15 K, m1 = 0.01656 | 1100.28
293.15 K, m1 = 0.01857 | 1100.29
293.15 K, m1 = 0.02122 | 1100.3
293.15 K, m1 = 0.02403 | 1100.31
303.15 K, m1 = 0.00371 | 1090.4
303.15 K, m1 = 0.00614 | 1090.4
303.15 K, m1 = 0.00792 | 1090.41
303.15 K, m1 = 0.00994 | 1090.42
303.15 K, m1 = 0.0118 | 1090.43
303.15 K, m1 = 0.01399 | 1090.44
303.15 K, m1 = 0.01604 | 1090.45
303.15 K, m1 = 0.01817 | 1090.46
303.15 K, m1 = 0.01986 | 1090.47
303.15 K, m1 = 0.02211 | 1090.48
308.15 K, m1 = 0.00436 | 1085.43
308.15 K, m1 = 0.00683 | 1085.43
308.15 K, m1 = 0.00903 | 1085.45
308.15 K, m1 = 0.01149 | 1085.46
308.15 K, m1 = 0.01349 | 1085.47
308.15 K, m1 = 0.01606 | 1085.48
308.15 K, m1 = 0.01812 | 1085.49
308.15 K, m1 = 0.02147 | 1085.51
308.15 K, m1 = 0.02348 | 1085.52
308.15 K, m1 = 0.02922 | 1085.55
313.15 K, m1 = 0.00453 | 1080.48
313.15 K, m1 = 0.00685 | 1080.5
313.15 K, m1 = 0.00907 | 1080.51
313.15 K, m1 = 0.01123 | 1080.52
313.15 K, m1 = 0.01315 | 1080.53
313.15 K, m1 = 0.01625 | 1080.55
313.15 K, m1 = 0.01812 | 1080.56
313.15 K, m1 = 0.02054 | 1080.57
313.15 K, m1 = 0.02269 | 1080.59

C[S+](C)[O-] [dimethyl sulfoxide] + CCCCn1cc[n+](C)c1.[Br-]
[1], m2 = 0
Conditions | mass density [kg/m3]
293.15 K | 1100.22
303.15 K | 1090.36
308.15 K | 1085.41
313.15 K | 1080.45

C[S+](C)[O-] [dimethyl sulfoxide] + CCCCCCCCn1cc[n+](C)c1.[Br-]
[1], m2 = 0
Conditions | mass density [kg/m3]
293.15 K | 1100.22
303.15 K | 1090.34
308.15 K | 1085.41
313.15 K | 1080.43

CCCCCCCCn1cc[n+](C)c1.[Br-] [1-methyl-3-octylimidazolium bromide] + C[S+](C)[O-]
[1]
Conditions | mass density [kg/m3]
293.15 K, m1 = 0.00222 | 1100.28
293.15 K, m1 = 0.00411 | 1100.33
293.15 K, m1 = 0.00639 | 1100.39
293.15 K, m1 = 0.00868 | 1100.45
293.15 K, m1 = 0.01098 | 1100.51
293.15 K, m1 = 0.01287 | 1100.56
293.15 K, m1 = 0.0156 | 1100.63
293.15 K, m1 = 0.01754 | 1100.68
293.15 K, m1 = 0.01986 | 1100.74
293.15 K, m1 = 0.0222 | 1100.8
303.15 K, m1 = 0.00254 | 1090.41
303.15 K, m1 = 0.00588 | 1090.5
303.15 K, m1 = 0.00888 | 1090.58
303.15 K, m1 = 0.01151 | 1090.65
303.15 K, m1 = 0.01491 | 1090.74
303.15 K, m1 = 0.01758 | 1090.81
303.15 K, m1 = 0.02064 | 1090.89
303.15 K, m1 = 0.02333 | 1090.96
303.15 K, m1 = 0.02681 | 1091.05
303.15 K, m1 = 0.03031 | 1091.14
308.15 K, m1 = 0.00216 | 1085.43
308.15 K, m1 = 0.00471 | 1085.5
308.15 K, m1 = 0.00692 | 1085.56
308.15 K, m1 = 0.00913 | 1085.62
308.15 K, m1 = 0.01398 | 1085.75
308.15 K, m1 = 0.01624 | 1085.81
308.15 K, m1 = 0.01888 | 1085.88
308.15 K, m1 = 0.02155 | 1085.95
308.15 K, m1 = 0.02348 | 1086
308.15 K, m1 = 0.02616 | 1086.07
313.15 K, m1 = 0.00623 | 1080.57
313.15 K, m1 = 0.01004 | 1080.67
313.15 K, m1 = 0.01351 | 1080.76
313.15 K, m1 = 0.01667 | 1080.84
313.15 K, m1 = 0.01987 | 1080.92
313.15 K, m1 = 0.02275 | 1080.99
313.15 K, m1 = 0.02686 | 1081.09
313.15 K, m1 = 0.02946 | 1081.15
313.15 K, m1 = 0.03287 | 1081.23
313.15 K, m1 = 0.03631 | 1081.31

C[S+](C)[O-] [dimethyl sulfoxide] + CCCCCCCCCCn1cc[n+](C)c1.[Br-]
[1], m2 = 0
Conditions | mass density [kg/m3]
293.15 K | 1100.22
303.15 K | 1090.37
308.15 K | 1085.42
313.15 K | 1080.45

C[S+](C)[O-] [dimethyl sulfoxide]
[2]
Conditions | mass density
293.15 K | 1100.22 kg/m3
303.15 K | 1090.37 kg/m3 [middle of 4 runs]
308.15 K | 1085.41 kg/m3 and 1085.42 kg/m3
313.15 K | 1080.45 kg/m3 and 1080.43 kg/m3 and 1080.47 kg/m3

CCCCCCCCCCn1cc[n+](C)c1.[Br-] [1-decyl-3-methylimidazolium bromide] + C[S+](C)[O-]
[1]
Conditions | mass density [kg/m3]
293.15 K, m1 = 0.00402 | 1100.27
293.15 K, m1 = 0.00649 | 1100.3
293.15 K, m1 = 0.00933 | 1100.34
293.15 K, m1 = 0.01163 | 1100.38
293.15 K, m1 = 0.0141 | 1100.41
293.15 K, m1 = 0.0167 | 1100.45
293.15 K, m1 = 0.01877 | 1100.49
293.15 K, m1 = 0.02117 | 1100.53
293.15 K, m1 = 0.02341 | 1100.56
293.15 K, m1 = 0.02766 | 1100.63
303.15 K, m1 = 0.00542 | 1090.45
303.15 K, m1 = 0.00729 | 1090.48
303.15 K, m1 = 0.00969 | 1090.52
303.15 K, m1 = 0.01151 | 1090.55
303.15 K, m1 = 0.01339 | 1090.58
303.15 K, m1 = 0.01545 | 1090.61
303.15 K, m1 = 0.01741 | 1090.65
303.15 K, m1 = 0.01809 | 1090.66
303.15 K, m1 = 0.01996 | 1090.69
308.15 K, m1 = 0.00501 | 1085.49
308.15 K, m1 = 0.00676 | 1085.52
308.15 K, m1 = 0.01153 | 1085.59
308.15 K, m1 = 0.01415 | 1085.64
308.15 K, m1 = 0.01624 | 1085.68
308.15 K, m1 = 0.0184 | 1085.72
308.15 K, m1 = 0.02101 | 1085.76
308.15 K, m1 = 0.0233 | 1085.8
313.15 K, m1 = 0.00484 | 1080.52
313.15 K, m1 = 0.0071 | 1080.56
313.15 K, m1 = 0.00963 | 1080.6
313.15 K, m1 = 0.01229 | 1080.65
313.15 K, m1 = 0.01489 | 1080.69
313.15 K, m1 = 0.01739 | 1080.74
313.15 K, m1 = 0.0195 | 1080.78
313.15 K, m1 = 0.02205 | 1080.82
313.15 K, m1 = 0.02449 | 1080.87
